# Experimental data: publication PMC7329795 (Pharmacological Reports, 2020)
# Like-named read-outs stand apart in the source and are kept apart here.
# B1: CYP2C19 (Homo sapiens) (protein)
# chain: MDPFVVLVLCLSCLLLLSIWRQSSGRGKLPPGPTPLPVIGNILQIDIKDVSKSLTNLSKIYGPVFTLYFGLERMVVLHGYEVVKEALIDLGEEFSGRGHFPLAERANRGFGIVFSNGKRWKEIRRFSLMTLRNFGMGKRSIEDRVQEEARCLVEELRKTKASPCDPTFILGCAPCNVICSIIFQKRFDYKDQQFLNLMEKLNENIRIVSTPWIQICNNFPTIIDYFPGTHNKLLKNLAFMESDILEKVKEHQESMDINNPRDFIDCFLIKMEKEKQNQQSEFTIENLVITAADLLGAGTETTSTTLRYALLLLLKHPEVTAKVQEEIERVIGRNRSPCMQDRGHMPYTDAVVHEVQRYIDLIPTSLPHAVTCDVKFRNYLIPKGTTILTSLTSVLHDNKEFPNPEMFDPRHFLDEGGNFKKSNYFMPFSAGKRICVGEGLARMELFLFLTFILQNFNLKSLIDPKDLDTTPVVNGFASVPPFYQLCFIPV
# B2: CYP1A2 (Homo sapiens) (protein)
# chain: MALSQSVPFSATELLLASAIFCLVFWVLKGLRPRVPKGLKSPPEPWGWPLLGHVLTLGKNPHLALSRMSQRYGDVLQIRIGSTPVLVLSRLDTIRQALVRQGDDFKGRPDLYTSTLITDGQSLTFSTDSGPVWAARRRLAQNALNTFSIASDPASSSSCYLEEHVSKEAKALISRLQELMAGPGHFDPYNQVVVSVANVIGAMCFGQHFPESSDEMLSLVKNTHEFVETASSGNPLDFFPILRYLPNPALQRFKAFNQRFLWFLQKTVQEHYQDFDKNSVRDITGALFKHSKKGPRASGNLIPQEKIVNLVNDIFGAGFDTVTTAISWSLMYLVTKPEIQRKIQKELDTVIGRERRPRLSDRPQLPYLEAFILETFRHSSFLPFTIPHSTTRDTTLNGFYIPKKCCVFVNQWQVNHDPELWEDPSEFRPERFLTADGTAINKPLSEKMMLFGMGKRRCIGEVLAKWEIFLFLAILLQQLEFSVPPGVKVDLTPIYGLTMKHARCEHVQARLRFSIN
# Experiments:
# [1] = target: T1, CYP3A4 (Homo sapiens, UniProt P08684); experiment: in vitro; conditions: pH 7.4
# [2] = target: T1, CYP3A4; experiment: in vitro; conditions: pH 7.4; remark: listed apart in the source
# [3] = target: human cDNA-expressed CYP3A4 (Homo sapiens, UniProt P08684)
# [4] = target: T1, CYP3A4
# [5] = target: T2, CYP2C9 (Homo sapiens, UniProt P11712); experiment: in vitro
# Experimental: (§1) The final incubation volume was 0.5 ml. After a 30-min incubation, the reaction was stopped by adding 100 µl of acetonitrile. […] The final concentration of CYP2C9 was 50 pmol/ml. Concentrations of diclofenac and its metabolite 4′-hydroxydiclofenac, formed in liver microsomes or Supersomes 2C9, were assessed by the HPLC method with UV detection, as described previously.
# [6] = target: T2, CYP2C9; experiment: CYP2C9 activity, diclofenac 4′-hydroxylation, Supersomes CYP2C9; conditions: human, pH 7.4, probe diclofenac (4′-hydroxylation)
# Experimental: as §1
# [7] = target: human cDNA-expressed CYP2C9 (Homo sapiens, UniProt P11712); experiment: as above
# Experimental: as §1
# [8] = target: T3, CYP2D6 (Homo sapiens, UniProt P10635)
# [9] = cited from earlier work
# [10] = target: T3, CYP2D6; set-up: method as in PMID 26033329; conditions: psychiatric patients; cited from earlier work
# [11] = target: T4, CYP2C19 (Homo sapiens, UniProt P33261); conditions: liver microsomes; asenapine 0.01-10 μM
# [12] = cited from earlier work; remark: listed apart in the source
# [13] = target: T5, human cDNA-expressed CYP2D6 (Homo sapiens, UniProt P10635)
# [14] = target: T6, CYP1A2 (Homo sapiens, UniProt P05177)
# T6 sequence (P05177 1-516): B2 chain
# [15] = cited from earlier work; remark: listed apart in the source
# [16] = target: T3, CYP2D6; conditions: liver microsomes; Lineweaver–Burk's plots
# [17] = target: T4, CYP2C19
# [18] = target: T5, human cDNA-expressed CYP2D6; conditions: recombinant enzyme
# [19] = target: T6, CYP1A2; conditions: liver microsomes; Lineweaver–Burk's plots
# [20] = clinical studies; cited from earlier work
# [21] = substrate: CN1CCN(CCCN2c3ccccc3Sc3ccccc32)CC1
# [22] = substrate: Cn1c(=O)c2c(ncn2C)n(C)c1=O
# T2 sequence (P11712 whole entry): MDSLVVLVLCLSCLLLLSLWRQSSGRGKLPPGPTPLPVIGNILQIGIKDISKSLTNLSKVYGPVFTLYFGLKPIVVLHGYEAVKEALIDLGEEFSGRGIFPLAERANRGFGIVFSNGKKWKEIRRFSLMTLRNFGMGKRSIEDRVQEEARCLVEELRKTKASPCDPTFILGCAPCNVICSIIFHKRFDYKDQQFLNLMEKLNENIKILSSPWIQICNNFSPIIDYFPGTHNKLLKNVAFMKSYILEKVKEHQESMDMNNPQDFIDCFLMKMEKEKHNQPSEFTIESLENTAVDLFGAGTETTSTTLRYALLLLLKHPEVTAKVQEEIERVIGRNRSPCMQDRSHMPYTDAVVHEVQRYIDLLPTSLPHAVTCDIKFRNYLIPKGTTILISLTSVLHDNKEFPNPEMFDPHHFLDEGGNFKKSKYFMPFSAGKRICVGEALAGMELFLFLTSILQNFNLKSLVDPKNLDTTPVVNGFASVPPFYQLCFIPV
# T1 sequence (P08684 whole entry): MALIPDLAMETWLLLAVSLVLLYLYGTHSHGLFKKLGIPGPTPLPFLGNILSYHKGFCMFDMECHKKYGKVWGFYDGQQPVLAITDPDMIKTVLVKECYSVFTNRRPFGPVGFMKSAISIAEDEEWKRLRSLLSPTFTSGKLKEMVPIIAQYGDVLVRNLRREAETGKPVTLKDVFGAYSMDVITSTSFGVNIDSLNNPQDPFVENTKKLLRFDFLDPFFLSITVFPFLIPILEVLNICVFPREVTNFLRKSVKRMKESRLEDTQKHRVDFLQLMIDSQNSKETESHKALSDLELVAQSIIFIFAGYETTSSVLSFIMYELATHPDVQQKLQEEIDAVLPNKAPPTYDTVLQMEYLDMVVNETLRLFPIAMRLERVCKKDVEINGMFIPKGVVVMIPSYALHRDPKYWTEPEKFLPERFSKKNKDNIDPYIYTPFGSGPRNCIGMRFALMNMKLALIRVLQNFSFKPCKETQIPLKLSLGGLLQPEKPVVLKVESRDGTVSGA
# T3 sequence (P10635 whole entry): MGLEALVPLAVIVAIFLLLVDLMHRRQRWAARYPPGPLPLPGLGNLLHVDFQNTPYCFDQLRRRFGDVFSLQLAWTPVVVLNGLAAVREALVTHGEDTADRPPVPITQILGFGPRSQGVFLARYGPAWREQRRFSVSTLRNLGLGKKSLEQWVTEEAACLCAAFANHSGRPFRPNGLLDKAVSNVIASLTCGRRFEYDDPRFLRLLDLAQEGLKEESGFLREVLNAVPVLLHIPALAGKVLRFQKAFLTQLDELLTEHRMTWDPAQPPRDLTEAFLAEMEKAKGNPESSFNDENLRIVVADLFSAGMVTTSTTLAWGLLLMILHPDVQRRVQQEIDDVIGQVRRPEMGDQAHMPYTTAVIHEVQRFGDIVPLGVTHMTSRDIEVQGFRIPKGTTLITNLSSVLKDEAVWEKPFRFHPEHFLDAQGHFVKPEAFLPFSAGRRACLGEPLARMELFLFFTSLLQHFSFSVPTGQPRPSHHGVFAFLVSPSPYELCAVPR
# T5 sequence (P10635 whole entry): as above
# Chain of human cDNA-expressed CYP2C9 (P11712 whole entry): as the sequence (P11712 whole entry) above
# Chain of human cDNA-expressed CYP3A4 (P08684 whole entry): as the sequence (P08684 whole entry) above
molecule,measurement,setting,value
C[C@]12CC[C@H]3[C@@H](CCC4=CC(=O)CC[C@@]43C)[C@@H]1CC[C@@H]2O [testosterone],Km at 20 min,[1],283 µM
same,Km at 30 min,[2],428 µM
same,"Vmax, testosterone 6β-hydroxylation",[3]; Supersomes CYP3A4,42.9 pmol/pmol CYP/min
same,"Vmax, testosterone 6β-hydroxylation",[4]; human liver microsomes,72.9 pmol/mg protein/min
O=C(O)Cc1ccccc1Nc1c(Cl)cccc1Cl [diclofenac],Km at 30 min,"[5]; human, pH 7.4",137 µM
same,Km at 30 min,[6],132 µM
same,"Vmax, diclofenac 4′-hydroxylation",[7]; Supersomes CYP2C9,213.6 pmol/pmol CYP/min
CN1CC2c3ccccc3Oc3ccc(Cl)cc3C2C1 (stereo not drawn) [Asenapine],IC50,[8],0.391 µM
same,Ki,[8],1.75 µM
same,bound to plasma proteins,[9],95%
same,effect on the concentration of paroxetine (a CYP2D6 substrate) in the blood plasma,[10],doubled
same,effect on the activity of CYP2C19,[11],did not affect
same,estimated terminal half-life (t1/2),[12]; adults,approximately 24 h
same,therapeutic plasma concentrations,[12],up to 0.1 μM
same,type of inhibition (CYP3A4),[3]; recombinant enzyme,non-competitive
same,type of inhibition (CYP3A4),"[4]; liver microsomes, Lineweaver–Burk's plots",non-competitive
same,IC50,[5],> 1000 µM
same,effect on the activity of CYP2C9,"[5]; liver microsomes, asenapine 0.01-10 μM",did not affect
same,IC50,[7],> 1000 µM
same,IC50,[13],0.398 µM
same,Ki,[13],1.89 µM
same,IC50,[14],0.697 µM
same,Ki,[14],3.2 µM
same,pKa,[15]; amine,9.64
same,log P,[15]; cationic form,1.4
same,log P,[15]; neutral form,4.9
same,pKa,[15]; protonated base,8.6
same,type of inhibition (CYP2D6),[16],competitive
same,IC50,[17],> 1000 µM
same,type of inhibition (CYP2D6),[18],competitive
same,type of inhibition (CYP1A2),[19],mixed
O=C(CCCN1CCC(O)(c2ccc(Cl)cc2)CC1)c1ccc(F)cc1 [haloperidol],concentration in the liver relative to that in plasma,[20],900 fold
B1,Km,[21],199.9 µM
same,Vmax,[21],1.58 nmol/mg protein/min
B2,Km,[22],709 µM
same,Vmax,[22],9.67 pmol/mg protein/min
